Active and inactive are the calls of the source. Cut-off read from the data, not from the text of the source: active = inhibition of 80% or more and inactive = less.
How the values were obtained:
Naegleria gruberi [1] = conditions: NEG-M, at 10 µM
Description: (§1) Growth inhibiting activity of Naegleria gruberi in vitro

Naegleria gruberi [2] = assay: microbe, parasite or virus in culture; type: functional; conditions: NEG-M, CONC 10 uM
Description: as §1

Molecule: MMV688978
- inhibition (Naegleria gruberi [1]): 60.5%

Molecule: COc1cc(-c2cc(-c3ccc(S(C)(=O)=O)cc3)cnc2N)ccc1O
- inhibition at 10 µM (Naegleria gruberi [2]): 67.8% (not active)

Molecule: O=C(Nc1cccc(-c2ccc(NCCCN3CCCC3)nc2)c1)c1ccccc1
- inhibition at 10 µM (Naegleria gruberi [2]): 8.2% (not active)

Molecule: COc1cccc(OC)c1C(=O)Nc1ccc(Cl)c(-c2nc3ccccc3s2)c1
- inhibition at 10 µM (Naegleria gruberi [2]): 19.2% (not active)

Molecule: CCN(CC)S(=O)(=O)c1ccc(C(=O)Nc2cc(C)nn2-c2nc(C)c(C)c(=O)[nH]2)cc1
- inhibition at 10 µM (Naegleria gruberi [2]): 41.8% (not active)

Molecule: CNC1C(OC2C(OC3C(O)C(O)C(N=C(N)N)C(O)C3N=C(N)N)OC(C)C2(O)C=O)OC(CO)C(O)C1O (configuration not stated)
- inhibition at 10 µM (Naegleria gruberi [2]): 0% (not active)

Molecule: OCc1ccc(-c2cncc(Nc3cccc(Cl)c3)c2)cc1
- inhibition at 10 µM (Naegleria gruberi [2]): 18.8% (not active)

Molecule: Cc1[nH]c2ccccc2c1C(c1cccs1)N1CCN(C)CC1 (configuration not stated)
- inhibition at 10 µM (Naegleria gruberi [2]): 23.9% (not active)

Molecule: CC(C(=O)Nc1ccc2oc(-c3ccncc3)nc2c1)c1ccccc1 (configuration not stated)
- inhibition at 10 µM (Naegleria gruberi [2]): 48.6% (not active)

Molecule: NCCN(C(=O)c1ccc(Cl)cc1Cl)c1ccc(OCc2ccc(Cl)cc2)cc1
- inhibition at 10 µM (Naegleria gruberi [2]): 29.6% (not active)

Molecule: FC(F)(F)c1nnc2ccc(Cl)nn12
- inhibition at 10 µM (Naegleria gruberi [2]): 16.8% (not active)

Molecule: CCn1cnc2c(Nc3cc(F)cc(F)c3)nc(C#N)nc21
- inhibition at 10 µM (Naegleria gruberi [2]): 83.2% (active)

Molecule: CC(C)NCC(=O)Nc1cccc(C(=O)Nc2cccc(C(F)(F)F)c2)c1
- inhibition at 10 µM (Naegleria gruberi [2]): 4.8% (not active)

Molecule: CO[C@@H]1CN(c2ccc(C#CC3(O)CN4CCC3CC4)c(Cc3ccccc3)n2)C[C@H]1O (some centres not stated)
- inhibition at 10 µM (Naegleria gruberi [2]): 0% (not active)

Molecule: CN1CCN(S(=O)(=O)c2ccc(-c3ccc4c(Nc5ncc(Cl)cn5)ccnc4c3)cc2)CC1
- inhibition at 10 µM (Naegleria gruberi [2]): 43.6% (not active)

Molecule: CC1CS(=O)(=O)CCN1/N=C/c1ccc([N+](=O)[O-])o1 (configuration not stated) [NIFURTIMOX]
- inhibition at 10 µM (Naegleria gruberi [2]): 11.1% (not active)

Molecule: CCc1c(C)nc(-n2nc(C)cc2NC(=O)c2ccccc2SC)[nH]c1=O
- inhibition at 10 µM (Naegleria gruberi [2]): 17.4% (not active)

Molecule: O=C(NC1CC1)c1ccc(N2CCC(Cc3ccccc3)CC2)nc1
- inhibition at 10 µM (Naegleria gruberi [2]): 59.1% (not active)

Molecule: Cc1cc(NCC(C)C)c2[nH]nc(-c3ccccc3)c2n1
- inhibition at 10 µM (Naegleria gruberi [2]): 25.8% (not active)

Molecule: C[C@@H]1[C@H](O)[C@@H](C)/C=C/C=C/C=C/C=C/C=C/C=C/C=C/[C@H](O[C@@H]2O[C@H](C)[C@@H](O)[C@H](N)[C@@H]2O)C[C@@H]2O[C@](O)(C[C@@H](O)C[C@@H](O)[C@H](O)CC[C@@H](O)C[C@@H](O)CC(=O)O[C@H]1C)C[C@H](O)[C@H]2C(=O)O [AMPHOTERICIN B]
- inhibition at 10 µM (Naegleria gruberi [2]): 2.4% (not active)

Molecule: CCCCS(=O)(=O)Nc1ccc2cnn(C)c2c1
- inhibition at 10 µM (Naegleria gruberi [2]): 17.4% (not active)

Molecule: Clc1ccc(CCNc2cc(-c3ccccc3)nc3ncnn23)cc1
- inhibition at 10 µM (Naegleria gruberi [2]): 44.5% (not active)

Molecule: O=C(NCCc1ccn(-c2ccccc2)n1)C1CCCCC1
- inhibition at 10 µM (Naegleria gruberi [2]): 6.2% (not active)

Molecule: NS(=O)(=O)c1cncc(-c2ccc3nccc(-c4cn[nH]c4)c3n2)c1
- inhibition at 10 µM (Naegleria gruberi [2]): 0% (not active)

Molecule: COC(=O)c1c(NC(=O)c2cc3ccccc3oc2=O)sc2c1CCN(Cc1ccccc1)C2
- inhibition at 10 µM (Naegleria gruberi [2]): 17.2% (not active)

Molecule: Cc1ccccc1CN1CCC(O)(c2ccc(Cl)c(C(F)(F)F)c2)CC1
- inhibition at 10 µM (Naegleria gruberi [2]): 47.4% (not active)

Molecule: CCOc1ccc2cc(-c3nn(C(C)(C)C)c(N)c3C(N)=O)cnc2c1
- inhibition at 10 µM (Naegleria gruberi [2]): 92.5% (active)

Molecule: COc1ccc(C(=N)N)cc1-c1cn(-c2ccc(C(=N)N)cc2)nn1
- inhibition at 10 µM (Naegleria gruberi [2]): 22.8% (not active)

Molecule: CCN(CC)C(=O)N1CCN(C)CC1 [DIETHYLCARBAMAZINE]
- inhibition at 10 µM (Naegleria gruberi [2]): 19% (not active)

Molecule: Oc1c(I)cc(I)c2cccnc12 [IODOQUINOL]
- inhibition at 10 µM (Naegleria gruberi [2]): 51.6% (not active)

Molecule: O=C(c1ccco1)N(CCCn1ccnc1)c1nc2c(Cl)cccc2s1
- inhibition at 10 µM (Naegleria gruberi [2]): 68.6% (not active)

Molecule: COc1cc(NC(=O)Cc2nn(C)c(=O)c3ccccc23)ccc1Cl
- inhibition at 10 µM (Naegleria gruberi [2]): 90.7% (active)

From ChEMBL document CHEMBL4513101, “Naegleria gruberi Pathogen Box compounds screening” (2021)
